Legend:
[1] = molecular target: p38 MAPKα (MAPK14) (Homo sapiens (Human), UniProt Q16539); assay: p38 MAPKα enzyme inhibition (FRET, Z-LYTE; Method 2); type: biochemical
Procedure: (§1) The enzyme inhibitory activities of compounds disclosed herein are determined by FRET using synthetic peptides labelled with both donor and acceptor fluorophores (Z-LYTE, Invitrogen Ltd., Paisley, UK).
The inhibitory activities of test compounds against the p38 MAPKα isoform (MAPK14: Invitrogen) are evaluated indirectly by determining the level of activation\phosphorylation of the down-stream molecule, MAPKAP-K2. The p38 MAPKα protein (80 ng/mL, 2.5 μL) is mixed with the test compound (2.5 μL of either 4 μg/mL, 0.4 μg/mL, 0.04 μg/mL or 0.004 μg/mL) for 2 hr at RT. […] The mixture is incubated for 1 hr at RT. Development reagent (protease, 5 μL) is added for 1 hr prior to detection in a fluorescence microplate reader (Vanoskan® Flash, ThermoFisher Scientific).
(§2) In all cases, the site-specific protease cleaves non-phosphorylated peptide only and eliminates the FRET signal. Phosphorylation levels of each reaction are calculated using the ratio of coumarin emission (donor) over fluorescein emission (acceptor), for which high ratios indicate high phosphorylation and low ratios indicate low phosphorylation levels.

[2] = molecular target: GSK 3α (Homo sapiens (Human), UniProt P49840); assay: GSK 3α enzyme inhibition (FRET, Z-LYTE; Method 2); type: biochemical; conditions: read-out: IC50 Values for Enzyme Inhibition GSK3α
Chain of GSK 3α (P49840 whole entry): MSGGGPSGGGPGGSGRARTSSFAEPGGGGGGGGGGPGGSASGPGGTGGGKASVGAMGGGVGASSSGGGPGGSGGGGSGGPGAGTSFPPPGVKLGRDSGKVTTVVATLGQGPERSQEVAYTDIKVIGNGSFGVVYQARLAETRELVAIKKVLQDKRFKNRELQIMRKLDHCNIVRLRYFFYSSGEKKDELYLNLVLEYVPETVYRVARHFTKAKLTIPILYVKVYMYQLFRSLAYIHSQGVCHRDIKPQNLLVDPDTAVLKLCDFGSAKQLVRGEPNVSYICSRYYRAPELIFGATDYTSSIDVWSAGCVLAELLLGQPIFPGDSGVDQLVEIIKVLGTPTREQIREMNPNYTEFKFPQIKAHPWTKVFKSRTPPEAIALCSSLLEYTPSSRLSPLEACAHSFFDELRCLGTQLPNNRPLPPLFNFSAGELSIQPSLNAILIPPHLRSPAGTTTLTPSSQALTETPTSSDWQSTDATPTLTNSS
Procedure: as §1
The inhibitory activities of compounds of the invention against the GSK 3α enzyme isoform (Invitrogen), are evaluated by determining the level of activation I phosphorylation of the target peptide. The GSK3-α protein (500 ng/mL, 2.5 μL) is mixed with the test compound (2.5 μL at either 4 μg/mL, 0.4 μg/mL, 0.04 μg/mL, or 0.004 μg/mL) for 2 hr at RT. The FRET peptide (8 μM, 2.5 μL), which is a phosphorylation target for GSK3α, and ATP (40 μM, 2.5 μL) are then added to the enzyme\compound mixture and the resulting mixture incubated for 1 hr. Development reagent (protease, 5 μL) is added for 1 hr prior to detection in a fluorescence microplate reader (Varioskan® Flash, ThermoFisher Scientific).
as §2
This method follows the same steps as Method 1 above, but utilises a shorter period of mixing of the test compound (105 minutes instead of 2 hours) with the GSK3-α protein. In addition, the concentrations of test compound employed are either 10 μg/mL, 1 μg/mL, 0.1 μg/mL, or 0.01 μg/mL

[3] = molecular target: Syk (Homo sapiens (Human), UniProt P43405); assay: Syk enzyme inhibition (FRET, Z-LYTE); type: biochemical
Procedure: as §1
(§3) The relevant enzyme (3000 ng/mL or 2000 ng/mL respectively, 2.5 μL) is incubated with the test compound (either 1 μg/mL, 0.1 μg/mL, 0.01 μg/mL, or 0.001 μg/mL, 2.5 μL each) for 2 hr at RT. The FRET peptides (8 μM, 2.5 μL), and appropriate ATP solutions (2.5 μL, 800 μM for c-Src, and 60 μM ATP for Syk) are then added to the enzymes/compound mixtures and the mixture incubated for 1 hr. Development reagent (protease, 5 μL) is added for 1 hr prior to detection in a fluorescence microplate reader (Varioskan® Flash, ThermoFisher Scientific).
as §2

[4] = molecular target: c-Src (Homo sapiens (Human), UniProt P12931); assay: c-Src enzyme inhibition (FRET, Z-LYTE); type: biochemical
Chain of c-Src (P12931 whole entry, looked up): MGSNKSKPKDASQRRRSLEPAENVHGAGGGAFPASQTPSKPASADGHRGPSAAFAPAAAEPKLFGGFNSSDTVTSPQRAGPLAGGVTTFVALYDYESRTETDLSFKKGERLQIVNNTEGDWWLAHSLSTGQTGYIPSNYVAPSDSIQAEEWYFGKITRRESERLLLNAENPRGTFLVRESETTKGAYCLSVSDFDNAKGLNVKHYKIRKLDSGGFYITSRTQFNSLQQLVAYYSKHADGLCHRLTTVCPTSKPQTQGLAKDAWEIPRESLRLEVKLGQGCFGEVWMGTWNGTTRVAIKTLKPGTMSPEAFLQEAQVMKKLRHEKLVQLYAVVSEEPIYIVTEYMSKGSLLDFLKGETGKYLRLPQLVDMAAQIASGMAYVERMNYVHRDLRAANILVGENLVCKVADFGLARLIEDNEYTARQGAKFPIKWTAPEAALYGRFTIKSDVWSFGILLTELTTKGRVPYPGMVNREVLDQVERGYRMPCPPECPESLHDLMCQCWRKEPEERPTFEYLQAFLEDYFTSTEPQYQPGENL
Procedure: as §1, §3, §2

[5] = tested on: β-catenin in d-U937 cells; assay: Accumulation of β catenin in d-U937 cells (assay m); type: cell-based, human
Procedure: U937 cells, a human monocytic cell line, are differentiated into macrophage-type cells by incubation with PMA (100 ng/mL) for between 48 to 72 hr. The cells are then incubated with either final concentrations of test compound or vehicle for 18 hr. The induction of β-catenin by the test compounds is stopped by replacing the media with 4% formaldehyde solution. Endogenous […] is neutralised by incubating with quenching buffer (100 μL, 0.1% sodium azide, 1% H2O2 in PBS with 0.05% Tween-20) for 20 min. The cells are washed with washing buffer (200 μL; PBS containing 0.05% Tween-20) and incubated with blocking solution (200 μL; 5% milk in PBS) for 1 hr, re-washed with washing buffer (200 μL) and then incubated overnight with anti-β-catenin antibody solution (50 μL) in 1% BSA/PBS (BD, Oxford, UK).
After washing with washing buffer (3×200 μL; PBS containing 0.05% Tween-20), cells are incubated with a HRP-conjugated secondary antibody solution (100 μL) in 1% BSA/PBS (Dako, Cambridge, UK) and the resultant signal is determined colourimetrically (OD: 450 nm with a reference wavelength of 655 nm) using TMB substrate (50 μL; R&D Systems, Abingdon, UK). This reaction is stopped by addition of 1N H2SO4 solution (50 μL). Cells are then washed with washing buffer and 2% crystal violet solution (50 μL) is applied for 30 min. After washing with washing buffer (3×200 μL), 1% SDS (100 μL) is added to each well and the plates are shaken lightly for 1 hr prior to measuring the absorbance at 595 nm (Varioskan® Flash, Thermo-Fisher Scientific).
The measured OD450-655 readings are corrected for cell number by dividing the OD450-655 by the OD595 readings.

Chain of p38 MAPKα (MAPK14) (Q16539 whole entry): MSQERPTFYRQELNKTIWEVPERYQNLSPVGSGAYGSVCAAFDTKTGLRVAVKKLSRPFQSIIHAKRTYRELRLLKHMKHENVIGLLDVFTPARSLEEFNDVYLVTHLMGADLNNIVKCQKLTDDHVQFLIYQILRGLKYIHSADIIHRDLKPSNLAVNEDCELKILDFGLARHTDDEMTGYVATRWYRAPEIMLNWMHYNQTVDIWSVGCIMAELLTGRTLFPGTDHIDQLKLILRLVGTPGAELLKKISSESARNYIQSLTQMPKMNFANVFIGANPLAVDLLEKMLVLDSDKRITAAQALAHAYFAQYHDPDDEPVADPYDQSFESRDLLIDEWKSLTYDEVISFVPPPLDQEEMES

SMILES	IC50 [1]	IC50 [2]	IC50 [3]	IC50 [4]	% β-catenin induction ([5]; test compound 1 μg/mL)	% β-catenin induction ([5]; test compound 5 μg/mL)	% β-catenin induction ([5]; test compound 10 μg/mL)
COCCOCCOCCOc1cc(Nc2nccc(Oc3ccc(NC(=O)Nc4cc(C(C)(C)C)cc(NS(C)(=O)=O)c4-c4ccccc4)c4ccccc34)n2)cc(OC)c1 [83(a), N-(4-(tert-butyl)-6-(3-(4-((2-((3-methoxy-5-(2-(2-(2-methoxyethoxy)ethoxy)ethoxy)phenyl)-amino)pyrimidin-4-yl)oxy)naphthalen-1-yl)ureido)-[1,1′-biphenyl]-2-yl)methane-sulfonamide]	142 nM	8330 nM	1160 nM	22 nM	–	–	–
COc1cc(Nc2nccc(Oc3ccc(NC(=O)Nc4cc(C(C)(C)C)cc(NS(C)(=O)=O)c4OC)c4ccccc34)n2)cc(OCCOCCOCCO)c1 [83(c), N-(5-(tert-butyl)-3-(3-(4-((2-((3-(2-(2-(2-hydroxyethoxy)ethoxy)ethoxy)-5-methoxyphenyl)-amino)pyrimidin-4-yl)oxy)naphthalen-1-yl)ureido)-2-methoxyphenyl)methanesulfonamide]	–	738 nM	–	–	4%	31%	33%
COc1c(NC(=O)Nc2ccc(Oc3ccnc(Nc4ccccc4)c3)c3ccccc23)cc(C(C)(C)C)cc1C(=O)NC1CCOCC1 [84(a), 3-[[4-[(2-Anilino-4-pyridyl)oxy]-1-naphthyl]carbamoylamino]-5-tert-butyl-2-methoxy-N-tetrahydropyran-4-yl-benzamide]	275 nM	12600 nM	–	–	–	–	–
C#Cc1cc(Nc2nccc(Oc3ccc(NC(=O)Nc4cc(F)cc(N5CCOCC5)c4)c4ccccc34)n2)cc(C(=O)NCCN2CCOCC2)c1 [Example 2, 3-Ethynv-5-((4-((4-(3-(3-fluoro-5-morpholinophenyl)ureido)naphthalen-1-yl)oxy)-pyrimidin-2-yl)amino)-N-(2-morpholinoethyl)benzamide]	37 nM	12700 nM	–	45 nM	−6%	−4%	–
C#Cc1cc(Nc2nccc(Oc3ccc(NC(=O)Nc4cc(C(C)(C)C)cc(C(=O)NC)c4OC)c4ccccc34)n2)cc(C(=O)NCCN2CCOCC2)c1 [Example 9]	–	1630 nM	27 nM	8 nM	32%	48%	67%
COc1cc(Nc2nccc(Oc3ccc(NC(=O)Nc4cc(C(C)(C)C)cc(NS(C)(=O)=O)c4OC)c4ccccc34)n2)cc(OCCOCCOCCN(C)C)c1 [Example 15, N-(5-(tert-Butyl)-3-(3-(4-((2-((3-(2-(2-(2-(dimethylamino)ethoxy)ethoxy)ethoxy)-5-methoxyphenyl)amino)pyrimidin-4-yl)oxy)naphthalen-1-yl)ureido)-2-methoxyphenyl)-methanesulfonamide]	–	905 nM	237 nM	–	−2%	−6%	−17%
CNC(=O)c1cc(NC(=O)Nc2ccc(Oc3ccnc(Nc4cc(OC)cc(OCCOCCOCCOC)c4)n3)c3ccccc23)cc(C(C)(C)C)c1 [Example 23, 3-(tert-Butyl)-5-(3-(4-((2-((3-methoxy-5-(2-(2-(2-methoxyethoxy)ethoxy)ethoxy)phenyl)-amino)pyrimidin-4-yl)oxy)naphthalen-1-yl)ureido)-N-methylbenzamide]	–	733 nM	147 nM	–	−4%	10%	9%
COCCOCCOCCOc1cc(Nc2nccc(Oc3ccc(NC(=O)Nc4cc(C(C)(C)C)cc(C(=O)NC5CC5)c4OC)c4ccccc34)n2)cc(OC)c1 [Example 33, 5-(tert-Butyl)-N-cyclopropyl-2-methoxy-3-(3-(4-((2-((3-methoxy-5-(2-(2-(2-methoxy-ethoxy)ethoxy)ethoxy)phenyl)amino)pyrimidin-4-yl)oxy)naphthalen-1-yl)ureido)-benzamide]	–	828 nM	28 nM	11 nM	–	–	–
COCCOCCOCCOc1cc(Nc2nccc(Oc3ccc(NC(=O)Nc4cc(C(C)(C)C)cc(C(=O)NCCO)c4OC)c4ccccc34)n2)cc(OC)c1 [Example 35, 5-(tert-Butyl)-N-(2-hydroxyethyl)-2-methoxy-3-(3-(4-((2-((3-methoxy-5-(2-(2-(2-methoxy-ethoxy)ethoxy)ethoxy)phenyl)amino)pyrimidin-4-yl)oxy)naphthalen-1-yl)ureido)-benzamide]	120 nM	597 nM	48 nM	13 nM	–	–	–
COCCOCCOCCOc1cc(Nc2nccc(Oc3ccc(NC(=O)Nc4cc(C(C)(C)C)cc(C(=O)NCC(=O)OC)c4OC)c4ccccc34)n2)cc(OC)c1 [Example 37, Methyl 2-(5-(tert-butyl)-2-methoxy-3-(3-(4-((2-((3-methoxy-5-(2-(2-(2-methoxyethoxy)-ethoxy)ethoxy)phenyl)amino)pyrimidin-4-yl)oxy)naphthalen-1-yl)ureido)benzamido)-acetate]	–	1520 nM	43 nM	12 nM	4%	38%	46%
C#Cc1cc(Nc2cc(Oc3ccc(NC(=O)Nc4cc(C(N)=O)cc(C(C)(C)C)c4)c4ccccc34)ccn2)cc(C(=O)NCCOCCOCCOC)c1 [Example 62, 3-((4-((4-(3-(3-(tert-Butyl)-5-carbamoylphenyl)ureido)naphthalen-1-yl)oxy)vridin-2-yl)amino)-5-ethynyl-N-(2-(2-(2-methoxyethoxy)ethoxy)ethyl)benzamide]	32 nM	10600 nM	1320 nM	44 nM	–	–	–
COc1c(NC(=O)Nc2ccc(Oc3ccnc(NCc4ccccn4)c3)c3ccccc23)cc(C(C)(C)C)cc1C(=O)NC1COC1 [Example 80, 5-(tert-Butyl)-2-methoxy-N-(oxetan-3-yl)-3-(3-(4-((2-((pyridin-2-ylmethyl)amino)pyridin-4-yl)oxy)naphthalen-1-yl)ureido)benzamide]	18 nM	1250 nM	–	968 nM	5%	38%	47%
COCCOCCOCCS(=O)(=O)c1cc(Nc2cc(Oc3ccc(NC(=O)Nc4cc(C(C)(C)C)cc(NS(C)(=O)=O)c4OC)c4ccccc34)ccn2)cc(OC)c1 [Example 85(y), 1-[5-tert-Butyl-3-(methanesulfonamido)-2-methoxyphenyl]-3-[4-[2-[3-methoxy-5-[2-[2-(2-methoxyethoxy)ethoxy]ethylsulfonyl]anilino]pyridin-4-yl]oxy-1-naphthyl]urea]	–	2630 nM	1160 nM	206 nM	–	–	–
